Our source for the EC50 and IC50 values is ChEMBL document CHEMBL1201862, “PubChem BioAssay data set” (2004).

Activity calls are given as the source filed them.

In experiment [1] the target is T1, Short transient receptor potential channel 4 (Mus musculus, UniProt Q9QUQ5).
T1 sequence (Q9QUQ5 whole entry): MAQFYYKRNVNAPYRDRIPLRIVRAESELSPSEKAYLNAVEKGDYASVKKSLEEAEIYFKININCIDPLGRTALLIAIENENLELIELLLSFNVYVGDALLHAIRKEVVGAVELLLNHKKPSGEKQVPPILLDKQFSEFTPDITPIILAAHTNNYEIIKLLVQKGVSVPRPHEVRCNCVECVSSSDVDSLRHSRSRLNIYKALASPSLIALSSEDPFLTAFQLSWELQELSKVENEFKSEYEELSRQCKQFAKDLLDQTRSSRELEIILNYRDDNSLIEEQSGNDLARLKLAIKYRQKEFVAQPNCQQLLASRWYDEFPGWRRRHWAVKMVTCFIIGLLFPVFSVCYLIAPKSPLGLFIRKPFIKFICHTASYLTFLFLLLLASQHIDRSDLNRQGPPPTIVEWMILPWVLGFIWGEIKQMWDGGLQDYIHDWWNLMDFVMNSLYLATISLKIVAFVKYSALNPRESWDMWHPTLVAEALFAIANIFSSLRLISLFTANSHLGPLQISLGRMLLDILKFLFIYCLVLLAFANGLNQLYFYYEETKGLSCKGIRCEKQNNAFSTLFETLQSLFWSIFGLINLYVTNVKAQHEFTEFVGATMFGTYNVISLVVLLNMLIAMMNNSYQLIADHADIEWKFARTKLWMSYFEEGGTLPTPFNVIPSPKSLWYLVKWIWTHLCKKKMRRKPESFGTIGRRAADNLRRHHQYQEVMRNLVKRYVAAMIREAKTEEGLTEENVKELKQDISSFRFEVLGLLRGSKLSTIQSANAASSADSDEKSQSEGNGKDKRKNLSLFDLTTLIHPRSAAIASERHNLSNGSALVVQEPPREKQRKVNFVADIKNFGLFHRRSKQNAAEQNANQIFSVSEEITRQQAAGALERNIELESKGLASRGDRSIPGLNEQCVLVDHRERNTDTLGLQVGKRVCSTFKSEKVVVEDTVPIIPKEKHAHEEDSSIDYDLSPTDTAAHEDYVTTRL
As to the kind of experiment: mouse TRPC4 channel activators, dose response, cell-based, HEK293 TRPC4/mu-opioid, Fluo-4 calcium (AID 434937). It is filed as functional.

The target of another experiment is SUMO-activating enzyme (Homo sapiens, UniProt Q9UBT2). As to the kind of experiment: SUMOylation inhibitor hit validation, confirmation, SUMOylation inhibitor project, biochemical, AlphaScreen (AID 2018). In kind it is functional. For orientation: Alpha assays give light when donor and acceptor beads are brought close together.
SUMO-activating enzyme, sequence (Q9UBE0 whole entry): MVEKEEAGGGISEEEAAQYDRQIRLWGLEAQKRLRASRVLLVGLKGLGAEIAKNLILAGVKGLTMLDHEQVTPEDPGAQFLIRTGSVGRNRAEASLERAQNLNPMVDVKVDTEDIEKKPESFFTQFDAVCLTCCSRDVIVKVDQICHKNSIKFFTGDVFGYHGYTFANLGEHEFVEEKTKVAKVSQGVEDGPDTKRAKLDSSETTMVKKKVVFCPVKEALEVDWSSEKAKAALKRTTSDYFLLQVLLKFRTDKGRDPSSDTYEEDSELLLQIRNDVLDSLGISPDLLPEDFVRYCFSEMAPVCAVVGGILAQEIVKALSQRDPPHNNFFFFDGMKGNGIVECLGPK
SUMO-activating enzyme, sequence (Q9UBT2 whole entry): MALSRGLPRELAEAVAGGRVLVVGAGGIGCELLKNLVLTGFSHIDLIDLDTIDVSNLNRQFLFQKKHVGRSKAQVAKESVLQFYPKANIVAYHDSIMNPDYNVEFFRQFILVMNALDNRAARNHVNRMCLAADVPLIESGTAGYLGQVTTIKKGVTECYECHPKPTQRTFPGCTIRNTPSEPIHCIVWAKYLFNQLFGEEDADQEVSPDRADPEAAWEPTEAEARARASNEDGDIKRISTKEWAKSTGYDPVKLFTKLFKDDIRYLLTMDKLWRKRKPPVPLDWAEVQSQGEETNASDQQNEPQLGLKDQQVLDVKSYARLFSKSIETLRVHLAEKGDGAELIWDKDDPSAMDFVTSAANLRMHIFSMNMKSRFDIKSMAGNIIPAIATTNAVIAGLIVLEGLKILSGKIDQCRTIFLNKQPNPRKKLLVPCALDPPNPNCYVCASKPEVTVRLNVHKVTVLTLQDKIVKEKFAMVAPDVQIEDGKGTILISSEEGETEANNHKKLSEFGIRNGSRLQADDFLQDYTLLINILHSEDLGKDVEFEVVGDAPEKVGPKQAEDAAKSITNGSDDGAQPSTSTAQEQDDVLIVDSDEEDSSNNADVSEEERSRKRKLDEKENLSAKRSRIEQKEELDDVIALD
The target in the next experiment is T2, Estrogen receptor (Homo sapiens, UniProt P03372).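 Also: potency for inhibiting coactivator peptide recruitment to the receptor.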
T2 sequence (P03372 whole entry): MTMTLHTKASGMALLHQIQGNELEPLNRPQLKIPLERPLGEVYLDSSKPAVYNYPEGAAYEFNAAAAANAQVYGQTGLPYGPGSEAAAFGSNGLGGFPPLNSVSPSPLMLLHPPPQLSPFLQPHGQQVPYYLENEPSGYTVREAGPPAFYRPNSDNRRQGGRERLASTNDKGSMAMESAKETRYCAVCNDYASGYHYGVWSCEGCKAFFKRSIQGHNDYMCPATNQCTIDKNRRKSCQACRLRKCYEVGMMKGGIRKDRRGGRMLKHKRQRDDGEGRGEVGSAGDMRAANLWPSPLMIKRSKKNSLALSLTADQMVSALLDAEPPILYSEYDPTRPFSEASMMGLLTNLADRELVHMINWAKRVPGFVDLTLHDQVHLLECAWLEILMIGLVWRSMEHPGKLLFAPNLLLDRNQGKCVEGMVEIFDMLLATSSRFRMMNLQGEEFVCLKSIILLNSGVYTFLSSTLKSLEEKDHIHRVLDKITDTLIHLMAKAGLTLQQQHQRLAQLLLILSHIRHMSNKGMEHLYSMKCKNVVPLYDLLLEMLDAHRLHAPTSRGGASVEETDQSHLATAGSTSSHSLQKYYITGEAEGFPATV

For experiment [2], the target named is Peroxisome proliferator-activated receptor gamma/Nuclear receptor coactivator 1 (Homo sapiens, UniProt P37231). As to the kind of experiment: TR-FRET dose response biochemical High Throughput Screening assay for agonists of the steroid receptor coactivator 1 (SRC-1) recruitment by the peroxisome proliferator-activated receptor gamma (PPAR gamma): non-selective agonists. [Related pubchem assays (depositor defined):AID1300, AID1808, AID504735, AID631]. It is filed as protein assay. On the technique in general: In TR-FRET formats the signal depends on donor and acceptor labels being close together.
Peroxisome proliferator-activated receptor gamma/Nuclear receptor coactivator 1, sequence (P37231 whole entry): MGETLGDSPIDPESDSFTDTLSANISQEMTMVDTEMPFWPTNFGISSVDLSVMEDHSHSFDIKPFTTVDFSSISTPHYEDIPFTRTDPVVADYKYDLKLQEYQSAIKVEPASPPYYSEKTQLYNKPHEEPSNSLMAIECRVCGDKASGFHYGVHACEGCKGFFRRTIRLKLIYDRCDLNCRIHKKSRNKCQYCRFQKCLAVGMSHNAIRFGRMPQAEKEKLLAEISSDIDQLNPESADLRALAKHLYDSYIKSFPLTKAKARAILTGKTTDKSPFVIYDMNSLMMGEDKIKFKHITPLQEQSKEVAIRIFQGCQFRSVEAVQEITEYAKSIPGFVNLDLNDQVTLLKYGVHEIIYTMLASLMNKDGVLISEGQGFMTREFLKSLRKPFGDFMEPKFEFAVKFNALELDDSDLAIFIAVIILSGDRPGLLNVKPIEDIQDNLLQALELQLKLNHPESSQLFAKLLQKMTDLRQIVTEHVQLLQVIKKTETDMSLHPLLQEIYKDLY
Peroxisome proliferator-activated receptor gamma/Nuclear receptor coactivator 1, sequence (Q15788 whole entry, further chain): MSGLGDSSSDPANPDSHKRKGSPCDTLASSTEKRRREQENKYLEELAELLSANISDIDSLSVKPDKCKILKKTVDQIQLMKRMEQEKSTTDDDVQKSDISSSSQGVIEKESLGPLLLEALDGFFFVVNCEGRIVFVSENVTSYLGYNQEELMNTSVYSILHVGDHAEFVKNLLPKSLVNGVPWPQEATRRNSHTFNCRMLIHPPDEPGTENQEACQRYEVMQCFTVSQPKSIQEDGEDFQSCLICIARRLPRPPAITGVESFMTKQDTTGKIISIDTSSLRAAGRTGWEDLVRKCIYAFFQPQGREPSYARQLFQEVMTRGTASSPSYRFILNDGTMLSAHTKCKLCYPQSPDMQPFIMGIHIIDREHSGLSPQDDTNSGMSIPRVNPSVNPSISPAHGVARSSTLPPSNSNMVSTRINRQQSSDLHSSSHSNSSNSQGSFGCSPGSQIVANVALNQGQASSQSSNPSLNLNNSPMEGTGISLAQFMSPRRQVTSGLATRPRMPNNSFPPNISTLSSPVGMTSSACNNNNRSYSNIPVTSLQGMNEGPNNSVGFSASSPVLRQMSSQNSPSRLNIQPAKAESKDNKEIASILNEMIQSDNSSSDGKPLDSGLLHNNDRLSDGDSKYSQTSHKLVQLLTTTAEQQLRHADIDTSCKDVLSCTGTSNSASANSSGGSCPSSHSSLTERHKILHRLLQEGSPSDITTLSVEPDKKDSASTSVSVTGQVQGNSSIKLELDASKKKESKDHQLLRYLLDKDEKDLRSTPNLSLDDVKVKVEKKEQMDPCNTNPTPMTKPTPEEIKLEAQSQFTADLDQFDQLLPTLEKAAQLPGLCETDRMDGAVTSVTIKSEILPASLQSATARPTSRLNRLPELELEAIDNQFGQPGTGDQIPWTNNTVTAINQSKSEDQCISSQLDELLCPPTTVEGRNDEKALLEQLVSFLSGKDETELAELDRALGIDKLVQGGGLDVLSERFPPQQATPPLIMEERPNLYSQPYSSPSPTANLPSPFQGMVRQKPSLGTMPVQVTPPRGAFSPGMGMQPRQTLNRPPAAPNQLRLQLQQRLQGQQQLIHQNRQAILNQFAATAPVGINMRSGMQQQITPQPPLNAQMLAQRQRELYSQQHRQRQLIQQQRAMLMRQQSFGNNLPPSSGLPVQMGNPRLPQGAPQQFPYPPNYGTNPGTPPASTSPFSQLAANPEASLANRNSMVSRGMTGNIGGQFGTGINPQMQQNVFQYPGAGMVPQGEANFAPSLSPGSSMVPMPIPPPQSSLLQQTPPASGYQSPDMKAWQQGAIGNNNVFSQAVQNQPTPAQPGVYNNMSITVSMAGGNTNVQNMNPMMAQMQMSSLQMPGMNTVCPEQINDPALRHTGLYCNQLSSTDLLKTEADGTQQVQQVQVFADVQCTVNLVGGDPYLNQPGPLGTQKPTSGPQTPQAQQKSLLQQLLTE

Experiment [3] addresses Peroxisome proliferator-activated receptor gamma/Nuclear receptor coactivator 3 (Homo sapiens, UniProt P37231). Kind of experiment: TR-FRET dose response biochemical High Throughput Screening assay for agonists of the steroid receptor coactivator 3 (SRC-3) recruitment by the peroxisome proliferator-activated receptor gamma (PPAR gamma): non-selective agonists. [Related pubchem assays: 1301 (Confirmation screen.), 1048 (Primary screen.)]. It is filed as functional.

The nature of experiment [4]: cytotoxicity in HPDE-C7 cells, cell-based, fluorescence, HTS (AID 430). It is filed as functional. The note with it: Homo sapiens.
Experiment [5] in a line: cytotoxicity in KRAS-transformed pancreatic duct cells, primary screen, cell-based, fluorescence, HTS (AID 431).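 Also: cell line used: HPDE-C7K.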 It is filed as functional. The note with it: Homo sapiens.
Experiment [6] deals with Peroxisome proliferator-activated receptor gamma/Nuclear receptor coactivator 2 (Homo sapiens, UniProt P37231). As to the kind of experiment: TR-FRET dose response biochemical High Throughput Screening assay for agonists of the steroid receptor coactivator 2 (SRC-2) recruitment by the peroxisome proliferator-activated receptor gamma (PPAR gamma): non-selective agonists. [Related pubchem assays: 1297, 1032 ]. In kind it is functional.
Peroxisome proliferator-activated receptor gamma/Nuclear receptor coactivator 2, sequence (P37231 whole entry): as the sequence (P37231 whole entry) above
Peroxisome proliferator-activated receptor gamma/Nuclear receptor coactivator 2, sequence (Q15596 whole entry, further chain): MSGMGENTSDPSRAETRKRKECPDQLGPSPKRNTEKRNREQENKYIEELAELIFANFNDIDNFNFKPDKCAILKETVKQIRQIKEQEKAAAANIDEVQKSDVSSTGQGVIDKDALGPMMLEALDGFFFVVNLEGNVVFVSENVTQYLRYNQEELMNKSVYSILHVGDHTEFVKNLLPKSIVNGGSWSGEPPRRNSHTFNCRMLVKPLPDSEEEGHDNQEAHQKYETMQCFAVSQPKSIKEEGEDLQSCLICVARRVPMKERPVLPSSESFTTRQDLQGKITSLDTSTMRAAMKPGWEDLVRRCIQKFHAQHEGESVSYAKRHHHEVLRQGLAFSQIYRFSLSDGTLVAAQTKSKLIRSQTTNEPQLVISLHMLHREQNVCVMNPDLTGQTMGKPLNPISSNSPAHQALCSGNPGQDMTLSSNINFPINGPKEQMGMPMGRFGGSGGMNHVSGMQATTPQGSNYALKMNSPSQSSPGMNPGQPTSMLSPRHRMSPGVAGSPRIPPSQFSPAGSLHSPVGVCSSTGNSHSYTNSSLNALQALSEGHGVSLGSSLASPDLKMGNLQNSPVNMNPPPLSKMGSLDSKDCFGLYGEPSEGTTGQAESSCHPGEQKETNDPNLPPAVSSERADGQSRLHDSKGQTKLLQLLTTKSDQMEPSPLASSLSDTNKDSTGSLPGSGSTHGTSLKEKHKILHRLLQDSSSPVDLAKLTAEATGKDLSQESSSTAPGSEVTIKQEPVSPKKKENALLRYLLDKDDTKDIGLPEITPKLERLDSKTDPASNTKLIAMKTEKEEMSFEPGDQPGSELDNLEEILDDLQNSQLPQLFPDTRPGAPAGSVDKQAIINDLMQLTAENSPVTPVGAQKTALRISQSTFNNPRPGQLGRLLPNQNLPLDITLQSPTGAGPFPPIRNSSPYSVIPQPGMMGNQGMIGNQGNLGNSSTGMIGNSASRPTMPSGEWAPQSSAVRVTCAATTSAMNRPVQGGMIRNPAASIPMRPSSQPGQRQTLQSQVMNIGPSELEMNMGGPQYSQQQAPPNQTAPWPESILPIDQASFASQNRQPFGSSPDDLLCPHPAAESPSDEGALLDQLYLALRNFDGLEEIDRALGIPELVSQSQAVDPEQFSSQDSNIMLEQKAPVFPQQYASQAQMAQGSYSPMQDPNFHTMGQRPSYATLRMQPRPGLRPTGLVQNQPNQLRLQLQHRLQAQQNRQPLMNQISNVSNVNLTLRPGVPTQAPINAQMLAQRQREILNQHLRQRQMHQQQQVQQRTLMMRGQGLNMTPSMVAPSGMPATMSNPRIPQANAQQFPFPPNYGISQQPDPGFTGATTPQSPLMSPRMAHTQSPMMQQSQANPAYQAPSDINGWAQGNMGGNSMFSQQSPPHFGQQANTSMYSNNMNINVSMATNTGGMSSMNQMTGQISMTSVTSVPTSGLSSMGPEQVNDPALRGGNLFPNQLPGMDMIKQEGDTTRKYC

Turning to `Cc1cccc(C(=O)NC(=S)NNC(=O)c2cccs2)c1`, in experiment [1], the EC50 is 2.99 µM (active).
Turning to `CCOc1cccc2cc(-c3nnc(NCc4ccco4)s3)c(=O)oc12`, the IC50 on SUMO-activating enzyme is 45.7 µM (active); at Estrogen receptor, 26.8 µM (active).
Take `COc1ccc2c(c1O)C13CCN(C)C(C2)C1CCC(=O)C3` (centres undefined): the EC50 in experiment [1] is 0.168 µM (active).
`CCn1c2c(c3cc(Br)ccc31)CCC/C2=N\O`: the EC50 was > 79.4 µM (inactive) in experiment [2]; > 79.4 µM (not active) in experiment [3]; 10.8 µM (active) in experiment [4]; 10.8 µM (active) in experiment [5]; 25.7 µM (not active) in experiment [6].

What is called EC50 is the midpoint of the concentration-response curve. As usually defined, the IC50 is the concentration that inhibits the measured activity by half.
